The source of these data is US20240173440A1, “HIGH PURITY COPPER RADIOPHARMACEUTICAL COMPOSITIONS AND DIAGNOSTIC AND THERAPEUTIC USES THEREOF” (Nuclidium AG, priority 2022, published 2024).

Data set [1] addresses T1, SST2 (Homo sapiens (Human), UniProt P30874). The data set is described as follows: Competitive binding assay (IC50) on HEK-SST2 cell membranes with 125I-Tyr-somatostatin-14. The conditions noted are these: 1 hour at 37° C., radioligand [^125I]-Tyr-somatostatin-14 0.05 nM, mean ± SD. On the procedure: (§1) Quantification of the free and bound radioligand was performed in a gamma-counter. The data were analyzed by GraphPad Prism 9 Software and the IC50 values were determined using the “log(inhibitor) vs response” equation based on the specific binding=total−non-specific binding.
(§2) Table 18. IC50 values were determined by competitive assays. […] The results are expressed as means standard deviation (SD) from a minimum of two separate experiments, each in triplicates.

The next data set deals with PSMA (Homo sapiens (Human), UniProt Q04609). The data set is described as follows: Competitive binding assay (IC50) on LNCaP cells with radioligand [125I-BA]KuE. The settings on record: 1 hour on ice, radioligand [^125I-BA]KuE 0.2 nM, mean ± SD. On the procedure:
In the case of the PSMA constructs, the radioiodinated ((S)-1-carboxy-5-(4-(-^125I-iodo-benzamido)pentyl)carbamoyl)-L-glutamic acid ([^125I-BA]KuE) was used as reference radioligand. The assay was performed on LNCaP cells seeded in 24-well plates (1.5×10^5 cells/well). The cells were incubated with increased concentrations of each ^natCu-complexed conjugates (ranging from 0.1 up to 100 nM) in the presence of 0.2 nM [^125I-BA]KuE. After 1 hour incubation on ice, the unbound (free) [^125I-BA]KuE was collected by removing the medium and the cells were detached with NaOH 1 M for counting (bound radioligand). Non-specific binding was defined as the amount of binding activity in the presence of the blocking agent 2-(phosphonomethyl)pentanedioic acid (2-PMPA) in high excess (10 μM).
as §1, §2

Data set [2] in a line: Lipophilicity, log D by shake-flask method (1-octanol/PBS pH 7.4). Format: physicochemical. The conditions noted are these: pH 7.4, shake-flask, Table 17, mean ± SD, read-out: log D(O/PBS pH 7.4). An outline of the steps: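 Radiotracer shaken 30 min in pre-saturated 1-octanol/PBS pH 7.4 (1:1), then centrifuged for phase separation. Radioactivity in each phase measured by gamma counting; log D reported as the average log of organic/PBS activity ratio.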

The target of data set [3] is T1, SST2. The data set is described as follows: Saturation binding on HEK-SST2 cell membranes. The conditions noted are these: 37° C. The method, then:
Cell Membrane Preparation: HEK-SST2 cells were grown to confluence, mechanically disaggregated, washed with PBS (pH 7.4) and re-suspended in 20 mM of homogenization Tris buffer (pH 7.5) containing 1.3 mM EDTA, 0.25 M sucrose, 0.7 mM bacitracin, 5 μM soybean trypsin inhibitor, and 0.7 mM PMSF. The cells were homogenized using Ultra-Turrax, and the homogenized suspension was centrifuged at 500×g for 10 min at 4° C. The supernatant was collected in centrifuge tubes (Beckman Coulter Inc., Brea, CA, USA). This procedure was then repeated 5 times. The collected supernatant was centrifuged in an ultra-centrifuge (Beckman) at 4° C. for 55 min at 49,000×g. Then, the pellet was re-suspended in 10 mM ice-cold HEPES buffer (pH 7.5), aliquoted, and stored at −80° C. The protein concentration of those membrane suspensions was determined by the Bradford method, BSA as the standard.
Saturation Experiment: The association profiles of [^61Cu]Cu-NODAGA-LM3 was studied at different concentrations, ranging from 0.075 to 10 nM, in HEK-SST2 cell membranes at 37° C. Each assay tube contained 170 μL of binding buffer (20 mM HEPES, pH 7.4, containing 4 mM μgCl2, 0.2% BSA, 20 μg/L bacitracin, 20 μg/L PMSF and 200,000 KIU/L aprotinin). […] The dissociation constant (KD) and maximal binding capacity (Bmax) values were calculated using GraphPad Software Inc., Prism 7, San Diego, CA, USA (FIG. 37)

A further data set has as its system HEK-SST2 xenografts. Kind of data set: PET/CT imaging in HEK-SST2 xenografted mice. Format: in vivo. The settings on record: 0-60 min and 240 min. The method, then:
Tumor xenografted mice were injected intravenously into the tail vein with the tested radiotracer. […] Mice were anesthetized with 1.5% isoflurane and dynamic PET scans were acquired during 1 hour upon injection of the radiotracer. The mice were euthanized by CO2 at 4 hours p.i., the bladder was mechanically emptied, and static PET scans were acquired for 30 min. PET images were acquired using the R-CUBE PET scanner system (MOLECUBES, Gent, Belgium) and they were decay corrected and reconstructed with the VivoQuant software version 4.0. The CT was imaged supine, headfirst, using the NanoSPECT/CT™ scanner (Bioscan Inc.). Topograms and helical CT scans of the whole mouse were first acquired using the following parameters: X-ray tube current: 177 μA, X-ray tube voltage 45 kVp, 90 seconds and 180 frames per rotation, pitch 1. CT images were reconstructed using CTReco (version r1.146), with a standard filtered back projection algorithm (exact cone beam) and post-filtered (RamLak, 100% frequency cut-off), resulting in a pixel size of 0.2 mm. Co-registered PET/CT images were visualized using maximum intensity projection (MIP) with InVivoScope (version 1.43, Bioscan Inc.). The results are presented in the Examples that follow.

The nature of a further data set: in vivo. The settings on record: iv, 20 umol, total radioactivity.

Sequence of PSMA (Q04609 whole entry): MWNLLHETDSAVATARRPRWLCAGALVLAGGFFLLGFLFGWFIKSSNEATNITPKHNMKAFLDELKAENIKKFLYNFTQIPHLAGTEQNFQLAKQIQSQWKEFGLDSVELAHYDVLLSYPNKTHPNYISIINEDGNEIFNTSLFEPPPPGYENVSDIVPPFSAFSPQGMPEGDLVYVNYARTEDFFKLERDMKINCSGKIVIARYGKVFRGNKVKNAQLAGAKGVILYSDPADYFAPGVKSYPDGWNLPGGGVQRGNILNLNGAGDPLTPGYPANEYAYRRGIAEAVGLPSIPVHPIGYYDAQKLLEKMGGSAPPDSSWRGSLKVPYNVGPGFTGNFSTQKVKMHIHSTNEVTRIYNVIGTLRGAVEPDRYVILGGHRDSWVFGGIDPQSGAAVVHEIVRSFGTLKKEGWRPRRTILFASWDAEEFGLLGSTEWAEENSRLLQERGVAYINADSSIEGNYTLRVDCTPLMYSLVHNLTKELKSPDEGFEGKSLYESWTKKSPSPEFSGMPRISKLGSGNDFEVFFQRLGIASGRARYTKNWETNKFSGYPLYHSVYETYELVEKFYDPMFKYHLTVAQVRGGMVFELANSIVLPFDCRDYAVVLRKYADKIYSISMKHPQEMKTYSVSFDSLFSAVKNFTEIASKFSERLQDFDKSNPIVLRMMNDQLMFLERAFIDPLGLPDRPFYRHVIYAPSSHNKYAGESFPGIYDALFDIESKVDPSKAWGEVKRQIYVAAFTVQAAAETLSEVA
T1 sequence (P30874 whole entry): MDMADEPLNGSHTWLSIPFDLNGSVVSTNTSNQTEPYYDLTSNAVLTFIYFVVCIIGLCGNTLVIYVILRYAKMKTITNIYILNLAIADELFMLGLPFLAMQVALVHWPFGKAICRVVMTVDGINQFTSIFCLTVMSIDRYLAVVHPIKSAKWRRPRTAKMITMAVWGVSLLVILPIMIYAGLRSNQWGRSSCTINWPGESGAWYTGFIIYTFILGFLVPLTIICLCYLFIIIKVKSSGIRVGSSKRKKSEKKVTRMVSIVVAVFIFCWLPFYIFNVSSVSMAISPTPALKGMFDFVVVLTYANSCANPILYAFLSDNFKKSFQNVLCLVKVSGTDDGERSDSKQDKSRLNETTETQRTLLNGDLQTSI
Method for in vivo: The tumors were allowed to grow for 1-3 weeks before commencement of the experiments.
The mice were randomly distributed in groups and euthanized at 1 and at 4 hours post-injection. The organs of interest were collected, rinsed, blotted, weighed and counted in a gamma counter. The results are expressed as percentage of injected activity per gram (% IA/g), representing the mean±standard deviation of n=4-8 mice per group and they were obtained by extrapolation from counts of an aliquot taken from the injected solution as standard.
The mice were randomly distributed in groups, injected with the radiotracer under investigation and euthanized at 1 and at 4 hours post-injection of the radiotracers under investigation. The organs of interest were collected, rinsed, blotted, weighed and counted in a gamma counter. The results are expressed as percentage of injected activity per gram (% IA/g), representing the mean±standard deviation of all mice per group and they were obtained by extrapolation from counts of an aliquot taken from the injected solution as standard.
The mice were randomly distributed in groups and euthanized at 4 hours post-injection. The organs of interest were collected, rinsed, blotted, weighed, and their respective radioactivity was counted in a gamma counter.

In the case of `CC(O)C1NC(=O)C(CCCCN)NC(=O)C(Cc2ccc(NC(N)=O)cc2)NC(=O)C(Cc2ccc(O)cc2)NC(=O)C(NC(=O)C(Cc2ccc(Cl)cc2)NC(=O)CCC(C(=O)O)N2CCN(CC(=O)O)CCN(CC(=O)O)CC2)CSSCC(C(=O)NC(Cc2ccc(O)cc2)C(N)=O)NC1=O` (centres unmarked) [NODAGA-LM3], the IC50 at SST2 [1] was determined as 17.8 ± 2 nM.
`O=C([O-])CN1CCN(CC(=O)[O-])CCN(C(CCC(=O)N[C@H](Cc2ccc(O)c(I)c2)C(=O)N[C@H](Cc2ccccc2)C(=O)N[C@H](CCCCNC(=O)CCCCCCC(=O)NCCCC[C@H](NC(=O)N[C@@H](CCC(=O)O)C(=O)O)C(=O)O)C(=O)O)C(=O)O)CCN(CC(=O)O)CC1.[Cu+2]` (some centres unmarked) [^natCu-DOTAGA-PSMA-I&T, reference compound] displayed an IC50 at PSMA of 11.2 ± 2.3 nM.
In the case of `C[C@@H](O)[C@@H]1NC(=O)[C@H](CCCCN)NC(=O)[C@@H](Cc2ccc(NC(N)=O)cc2)NC(=O)[C@H](Cc2ccc(O)cc2)NC(=O)[C@H](NC(=O)[C@H](Cc2ccc(Cl)cc2)NC(=O)CCC(C(=O)O)N2CCN(CC(=O)O)CCN(CC(=O)O)CC2)CSSC[C@@H](C(=O)N[C@H](Cc2ccc(O)cc2)C(N)=O)NC1=O` (some centres unmarked) [[^61Cu]Cu-NODAGA-LM3, metal not drawn], the logD in data set [2] is -2.42 ± 0.04. This compound also registered a Kd on SST2 [3] of 1.41 to 2.92 nM. Also, the “distribution pattern on PET/CT” value in the data set with HEK-SST2 xenografts is “same distribution pattern”. For the same compound, the tissue uptake at 4 h amounted to 0.6 ± 0.15 %ID/g in the data set “in vivo” (athymic nude Foxn1+Foxn1+, mouse, Biodistribution Adrenal); 0.11 ± 0.02 %ID/g in the data set “in vivo” (athymic nude Foxn1+Foxn1+, mouse, Biodistribution Blood); 0.13 ± 0.02 %ID/g in “in vivo” (athymic nude Foxn1+Foxn1+, mouse, Biodistribution Heart); 0.43 ± 0.08 %ID/g in the data set “in vivo” (athymic nude Foxn1+Foxn1+, mouse, Biodistribution Intestine); 0.44 ± 0.06 %ID/g in “in vivo” (athymic nude Foxn1+Foxn1+, mouse, Biodistribution Liver); 0.32 ± 0.05 %ID/g in “in vivo” (athymic nude Foxn1+Foxn1+, mouse, Biodistribution Lung). The tissue uptake at 4 h was found to be 0.43 ± 0.12 %ID/g in the data set “in vivo” (athymic nude Foxn1+Foxn1+, mouse, Biodistribution Pancreas); 0.14 ± 0.01 %ID/g in “in vivo” (athymic nude Foxn1+Foxn1+, mouse, Biodistribution Spleen); 0.68 ± 0.15 %ID/g in the data set “in vivo” (athymic nude Foxn1+Foxn1+, mouse, Biodistribution Stomach); 0.31 ± 0.07 %ID/g in “in vivo” (athymic nude Foxn1, mouse, Biodistribution Bone); 4.59 ± 0.41 %ID/g in the data set “in vivo” (athymic nude Foxn1, mouse, Biodistribution Kidneys); 0.06 ± 0.02 %ID/g in the data set “in vivo” (athymic nude Foxn1, mouse, Biodistribution Muscle). For the same compound, the tissue uptake at 4 h turned out to be 2.96 ± 0.62 %ID/g in the data set “in vivo” (athymic nude Foxn1, mouse, Biodistribution Pituitary) and 20.4 ± 4.2 %ID/g in the data set “in vivo” (athymic nude Foxn1, mouse, Biodistribution SSTR2-tumor).
Take `O=C([O-])CN1CCN(CC(=O)[O-])CCN([C@H](CCC(=O)N[C@H](Cc2ccc(O)c(I)c2)C(=O)N[C@H](Cc2ccccc2)C(=O)N[C@H](CCCCNC(=O)CCCCCCC(=O)NCCCC[C@H](NC(=O)N[C@@H](CCC(=O)O)C(=O)O)C(=O)O)C(=O)O)C(=O)O)CC1.[Cu+2]` [^natCu-NODAGA-PSMA-I&T]: the IC50 on PSMA was found to be 9.3 ± 1.8 nM.
